Assay results as given in patent US9365613B2, “Acylated 4-amidino- and -4-guanidinobenzylamines for inhibition of plasma kallikrein” (The Medicines Company (Leipzig) GmbH, priority 2003, dated 2016).

Experiments:
Type in all cases: biochemical
[1] = target: thrombin (UniProt P00735); assay: Inhibitory constants for thrombin; details: read-out: Ki Thrombin
[2] = target: T1, human factor XIIa (Homo sapiens, UniProt P00748); assay: Inhibitory constants for factor XIIa (substrate H-D-HHT-Gly-Arg-pNA, Chromozym XII); details: read-out: Ki F XIIa
T1 construct: purchased Haemochrom Diagnostica GmbH, Essen, Germany
Protocol: (§1) The inhibitory effect for the individual enzymes was determined in analogy with a method which has already been described (Stürzebecher et al., J. Med. Chem. 40, 3091-3099, 1997).
(§2) After 3 min, the reaction was terminated by adding 25 μl of acetic acid (50%) and the absorption at […] was determined using a Microplate Reader (Labsystems iEMS Reader MF). The Ki values were determined, in accordance with Dixon (Biochem. J. 55, 170-171, 1953), by means of linear regression and using a computer program. The Ki values are the mean of at least three determinations.
(§3) The inhibition of factor XIa and factor XIIa was determined in an analogous manner. When determining the inhibitory constants for human factor XIa (Haemochrom Diagnostica GmbH, Essen, Germany), H-D-Lys(Z)-Pro-Arg-pNA (Chromozym PCa, Roche Diagnostics GmbH, Mannheim, Germany) was used as the substrate.
H-D-HHT-Gly-Arg-pNA (Chromozym XII, Roche Diagnostics GmbH, Mannheim, Germany) was used as the substrate for measuring the inhibitory constants of human factor XIIa (Haemochrom Diagnostica GmbH, Essen, Germany).

[3] = target: plasma kallikrein (PK) (Homo sapiens, UniProt P03952); assay: Determining the inhibitory constants: inhibition of PK (substrate Bzl-Pro-Phe-Arg-pNA); details: Tris buffer pH 8.0, 25° C.; mean of at least three determinations
Protocol: as §1, §2

[4] = target: T2, human factor XIa (Homo sapiens, UniProt P03951); assay: Inhibitory constants for factor XIa (substrate H-D-Lys(Z)-Pro-Arg-pNA, Chromozym PCa); details: read-out: Ki F XIa
T2 construct: purchased Haemochrom Diagnostica GmbH, Essen, Germany
Protocol: as §1, §2, §3

Sequence of plasma kallikrein (PK) (P03952 391-638 limits assumed, species assumed): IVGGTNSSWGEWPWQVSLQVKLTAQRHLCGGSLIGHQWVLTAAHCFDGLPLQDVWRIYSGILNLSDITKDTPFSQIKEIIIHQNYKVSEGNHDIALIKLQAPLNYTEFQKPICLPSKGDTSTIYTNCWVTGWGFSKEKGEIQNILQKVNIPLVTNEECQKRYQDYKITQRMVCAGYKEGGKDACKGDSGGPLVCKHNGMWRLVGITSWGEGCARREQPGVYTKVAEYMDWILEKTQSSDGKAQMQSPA
Sequence of plasma kallikrein (PK) (P03952 20-390 partner limits assumed, species assumed): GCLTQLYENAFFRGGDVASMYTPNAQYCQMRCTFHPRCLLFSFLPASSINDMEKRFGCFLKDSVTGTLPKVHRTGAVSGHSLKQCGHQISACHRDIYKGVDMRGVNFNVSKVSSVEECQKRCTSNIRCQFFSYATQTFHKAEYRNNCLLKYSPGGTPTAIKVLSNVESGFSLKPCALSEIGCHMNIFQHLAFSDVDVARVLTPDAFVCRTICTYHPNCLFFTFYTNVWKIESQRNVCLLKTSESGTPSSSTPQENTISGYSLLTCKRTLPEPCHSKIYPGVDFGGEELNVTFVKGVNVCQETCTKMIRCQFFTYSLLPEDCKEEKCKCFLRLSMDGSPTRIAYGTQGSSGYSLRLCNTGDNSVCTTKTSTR
T2 sequence (P03951 388-625 limits assumed): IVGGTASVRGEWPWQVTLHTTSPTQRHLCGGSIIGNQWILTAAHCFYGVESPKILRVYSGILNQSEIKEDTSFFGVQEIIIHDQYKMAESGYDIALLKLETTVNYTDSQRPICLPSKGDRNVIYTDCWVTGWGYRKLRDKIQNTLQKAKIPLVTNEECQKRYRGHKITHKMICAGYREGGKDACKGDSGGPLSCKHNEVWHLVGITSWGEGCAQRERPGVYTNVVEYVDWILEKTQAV
T2 sequence (P03951 19-387 partner limits assumed): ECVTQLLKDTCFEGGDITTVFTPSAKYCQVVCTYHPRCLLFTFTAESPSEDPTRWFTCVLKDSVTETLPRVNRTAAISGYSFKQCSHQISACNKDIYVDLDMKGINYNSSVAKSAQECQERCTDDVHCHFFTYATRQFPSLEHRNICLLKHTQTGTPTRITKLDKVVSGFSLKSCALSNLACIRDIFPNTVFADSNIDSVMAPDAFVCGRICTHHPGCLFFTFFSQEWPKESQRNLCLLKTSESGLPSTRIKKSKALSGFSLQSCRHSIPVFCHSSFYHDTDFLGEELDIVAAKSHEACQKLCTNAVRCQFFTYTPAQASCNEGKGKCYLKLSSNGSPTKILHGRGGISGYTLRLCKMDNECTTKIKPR
T1 sequence (P00748 373-615 limits assumed, other chains not shown): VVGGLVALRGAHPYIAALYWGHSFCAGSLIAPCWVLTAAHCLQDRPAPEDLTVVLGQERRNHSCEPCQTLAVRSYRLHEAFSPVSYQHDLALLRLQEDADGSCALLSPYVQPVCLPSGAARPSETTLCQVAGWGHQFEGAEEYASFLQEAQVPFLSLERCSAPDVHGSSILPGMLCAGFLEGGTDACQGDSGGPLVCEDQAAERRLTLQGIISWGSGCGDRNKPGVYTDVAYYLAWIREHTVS

Compound	Ki [1] [µM]	Ki [2] [µM]	Ki [3] [µM]	Ki [4] [µM]
N=C(N)c1ccc(CNC(=O)[C@H](CC(=O)O)NC(=O)[C@@H](CO)NS(=O)(=O)Cc2ccccc2)cc1 [Inhibitor 4]	> 1000	> 1000	3.7	
N=C(N)c1ccc(CNC(=O)[C@H](CCC(=O)O)NC(=O)[C@@H](CO)NS(=O)(=O)Cc2ccccc2)cc1 [Inhibitor 5]	38	> 1000	1.1	
N=C(N)c1ccc(CNC(=O)C[C@H](CO)NC(=O)[C@@H](CO)NS(=O)(=O)Cc2ccccc2)cc1 [Inhibitor 17]	8.5	> 1000	0.02	
C[C@@H](O)[C@H](NC(=O)[C@@H](COC(C)(C)C)NS(=O)(=O)Cc1ccccc1)C(=O)NCc1ccc(C(=N)N)cc1 [Inhibitor 38]	0.044	14	0.032	
CC(C)(C)OC[C@@H](NS(=O)(=O)Cc1ccc(C(=O)O)cc1)C(=O)NCC(=O)NCc1ccc(C(=N)N)cc1 [Inhibitor 46]	2.2	7.5	0.029	
N#Cc1cccc(CS(=O)(=O)N[C@H](CC2CCCCC2)C(=O)N2CCC[C@H]2C(=O)NCc2ccc(C(=N)N)cc2)c1 [Inhibitor 52]	< 0.001	13	0.086	
CC(C)(C)OC[C@@H](NS(=O)(=O)Cc1ccccc1)C(=O)N[C@@H](CCCCNC(=O)C(F)(F)F)C(=O)NCc1ccc(C(=N)N)cc1 [Inhibitor 62]	0.0029	6.1	0.011	
CC(C)(C)OC[C@@H](NS(=O)(=O)Cc1ccccc1)C(=O)N[C@@H](Cc1c[nH]cn1)C(=O)NCc1ccc(C(=N)N)cc1 [Inhibitor 64]	0.12	61	0.014	
CC(C)(C)OC[C@@H](NS(=O)(=O)Cc1ccc(CC(=O)O)cc1)C(=O)N1CCC[C@H]1C(=O)NCc1ccc(C(=N)N)cc1 [Inhibitor 66]	0.0018	4	0.016	
CC(C)(C)OC[C@@H](NS(=O)(=O)Cc1ccccc1)C(=O)N[C@@H](CCONC(=N)N)C(=O)NCc1ccc(C(=N)N)cc1 [Inhibitor 68]	0.038	6.8	0.019	
CC(C)(C)OC[C@@H](NS(=O)(=O)Cc1ccc(C(=O)O)cc1)C(=O)N1CCC[C@H]1C(=O)NCc1ccc(C(=N)N)cc1 [Inhibitor 70]	0.0023	2.4	0.025	
N=C(N)c1ccc(CNC(=O)[C@H](CCCCNC(=O)CCC(=O)O)NC(=O)[C@@H](CC2CCCCC2)NS(=O)(=O)Cc2ccccc2)cc1 [Inhibitor 71]	0.0021	11	0.029	
N=C(N)c1ccc(CNC(=O)[C@H](CCCCNC(=O)CCCC(=O)O)NC(=O)[C@@H](CO)NS(=O)(=O)Cc2ccccc2)cc1 [Inhibitor 86]	2.8		0.39	

Further lines, results first:

Ki [1] [µM]	Ki [2] [µM]	Ki [3] [µM]	Ki [4] [µM]	Compound
0.91	1.6	0.02		N=C(N)c1ccc(CNC(=O)[C@H](CO)NC(=O)[C@@H](CCc2ccncc2)NS(=O)(=O)Cc2ccccc2)cc1 [Inhibitor 69]
	0.36	0.22	0.028	N=C(N)c1ccc(CNC(=O)[C@H](CCC(=O)O)NC(=O)[C@@H](CCc2ccc(O)cc2)NS(=O)(=O)Cc2ccccc2)cc1 [Inhibitor 72]
	0.28	0.13	0.078	N=C(N)c1ccc(CNC(=O)[C@H](CO)NC(=O)[C@@H](CCc2ccc(O)cc2)NS(=O)(=O)Cc2ccccc2)cc1 [Inhibitor 73]
	0.78	0.12	0.61	N=C(N)c1ccc(CNC(=O)CNC(=O)[C@@H](CCc2ccc(O)cc2)NS(=O)(=O)Cc2ccccc2)cc1 [Inhibitor 75]
	0.15	0.39	0.27	N=C(N)c1ccc(CNC(=O)CNC(=O)[C@@H](CCc2ccccc2)NS(=O)(=O)Cc2ccccc2)cc1 [Inhibitor 76]
0.14	0.37	0.075		N=C(N)c1ccc(CNC(=O)CNC(=O)[C@H](NS(=O)(=O)Cc2ccccc2)C2Cc3ccccc3C2)cc1 [Inhibitor 83]
